From patent US7795299B2, “Neo-tanshinlactone and analogs as potent and selective anti-breast cancer agents” (The University of North Carolina at Chapel Hill, priority 2004, dated 2010) come the findings set out here.

In brackets after ≈: the same amount, converted by molar mass.

Series [1] deals with MDA-MB-231 (estrogen receptor negative breast cancer). Kind of series: In vitro anticancer assay (SRB), MDA-MB-231. It counts as cell-based, human. The note with it: concentration that reduces cell growth by 50%, 3 days in culture, SRB; for IC50: Homo sapiens, MDA-MB-231, 72 h, read-out: ED50, MDA-MB-231 (ER−). Here is the method:
(§1) All stock cultures were grown in T-25 flasks. Freshly trypsinized cell suspensions were seeded in 96-well microtiter plates at densities of 1500-7500 cells per well with compounds added from DMSO-diluted stock. After 3 days in culture, attached cells were fixed with cold 50% trichloroacetic acid and then stained with 0.4% sulforhodamine B (SRB). The absorbency at 562 nm was measured using a microplate reader after solubilizing the bound dye.
(§2) Biological assay. All stock cultures are grown in T-25 flasks. Freshly trypsinized cell suspensions were seeded in 96-well microtitre plates at densities of 1500-7500 cells per well with compounds added from DMSO-diluted stock. After 3 days in culture, attached cells were fixed with cold 50% trichloroacetic acid and then stained with 0.4% sulforhodamine B (SRB). The absorbency at 562 nm was measured using a microplate reader after solubilizing the bound dye.

Series [2] deals with MCF-7 (estrogen receptor positive breast cancer). Kind of series: In vitro anticancer assay (SRB), MCF-7. The note with it: for IC50: MCF7, 72 h, read-out: ED50, MCF-7 (ER+). The series is classed as cell-based, human. As to the method: as §1, §2
Series [3] deals with A431 (EGFR over-expressing skin cancer). The series is described as follows: In vitro anticancer assay (SRB), A431. It counts as cell-based, human. The following applies: Homo sapiens, A-431, 72 h; concentration that reduces cell growth by 50%, 3 days in culture, SRB; read-out: ED50, A431. As to the method: (§3) In Vitro Anticancer Assay (Nakanishi, Y. et al., J. Med. Chem. 2003, 46, 3185). All stock cultures were grown in T-25 flasks. Freshly trypsinized cell suspensions were seeded in 96-well microtiter plates at densities of 1500-7500 cells per well with compounds added from DMSO-diluted stock. After 3 days in culture, attached cells were fixed with cold 50% trichloroacetic acid and then stained with 0.4% sulforhodamine B (SRB). The absorbency at 562 nm was measured using a microplate reader after solubilizing the bound dye. The mean ED50 is the concentration of agent that reduces cell growth by 50% under the experimental conditions and is the average from at least three independent determinations that were reproducible and statistically significant (FIG. 2). The following human tumor cell lines were used in the assay: A549 (non small cell lung cancer), MCF-7 (estrogen receptor positive breast cancer), ZR-75-1 (estrogen receptor positive breast cancer), MDA-MB-231 (estrogen receptor negative breast cancer), HS 587-T (estrogen receptor negative breast cancer), SK− BR-3 (HER-2-overexpressing breast cancer), A431 (EGFRoverexpressing skin cancer), LN-CaP (AR-dependent prostate cancer), SW620 (colon cancer), PC-3 (prostate cancer), KB (nasopharyngeal carcinoma), KB-VIN (vincristine-resistant KB subline). All cell lines were obtained from the Lineberger Comprehensive Cancer Center (UNC-CH) or from ATCC (Rockville, Md.) and were cultured in RPMI-1640 medium supplemented with 25 mMHEPES, 0.25% sodium bicarbonate, 10% fetal bovine serum, and 100 μg/mL kanamycin.
(§4) Biological assay. All stock cultures are grown in T-25 flasks. Freshly trypsinized cell suspensions were seeded in 96-well microtitre plates at densities of 1500-7500 cells per well with compounds added from DMSO-diluted stock. After 3 days in culture, attached cells were fixed with cold 50% trichloroacetic acid and then stained with 0.4% sulforhodamine B (SRB). The absorbency at 562 nm was measured using a microplate reader after solubilizing the bound dye. The mean ED50 is the concentration of agent that reduces cell growth by 50% under the experimental conditions and is the average from at least three independent determinations that were reproducible and statistically significant. The following human tumor cell lines were used in the assay: A549 (non-small cell lung cancer), MCF-7 (estrogen receptor positive breast cancer), ZR-75-1 (estrogen receptor positive breast cancer), MDA MB-231 (estrogen receptor negative breast cancer), HS 587-T (estrogen receptor negative breast cancer), SK-BR-3 (estrogen receptor negative, HER-2 over-expressing breast cancer), A431 (EGFR over-expressing skin cancer), LN-CaP (AR-dependent prostate cancer), SW620 (colon cancer), PC-3 (prostate cancer), KB (nasopharyngeal carcinoma), KB-VIN (Vincristine resistant KB subline). All cell lines were obtained from the Lineberg Cancer Center (UNC-CH) or from ATCC (Rockville, Md.) and were cultured in RPMI-1640 medium supplemented with 25 mM HEPES, 0.25% sodium bicarbonate, 10% fetal bovine serum, and 100 μg/mL kanamycin.

Series [4] relates to ZR-75-1 (estrogen receptor positive breast cancer). Kind of series: In vitro anticancer assay (SRB), ZR-75-1. The series is classed as cell-based, human. The note with it: Homo sapiens, ZR-75-1, 72 h, concentration that reduces cell growth by 50%, 3 days in culture, read-out: ED50, ZR-75-1 (ER+). Here is the method: as §1, §2
For series [5], the system named is KB (nasopharyngeal carcinoma). The series is described as follows: In vitro anticancer assay (SRB), KB. The series is classed as cell-based, human. The note with it: Homo sapiens, 72 h; concentration that reduces cell growth by 50%, 3 days in culture, SRB; read-out: ED50, KB. Here is the method: as §3, §4
The next series concerns SW620 (colon cancer). Kind of series: In vitro anticancer assay (SRB), SW620. The series is classed as cell-based, human. The following applies: Homo sapiens, SW-620, 72 h; concentration that reduces cell growth by 50%, 3 days in culture, SRB; read-out: ED50, SW620. As to the method:
as §3, §4

For series [6], the system named is SK-BR-3 (HER-2-overexpressing breast cancer). The series is described as follows: In vitro anticancer assay (SRB), SK-BR-3. The note with it: Homo sapiens, SK-BR-3, 72 h; concentration that reduces cell growth by 50%, 3 days in culture, SRB; read-out: ED50, SK-BR-3 (ER−, HER2+). The series is classed as cell-based, human. Here is the method:
as §3, §4

Where [7] appears, read: Homo sapiens, concentration that reduces cell growth by 50%, 3 days in culture, SRB.

As to `O=c1oc2c(ccc3ccccc32)c2c1C(O)CO2` (stereo not drawn) [Compound 3a, 17-Hydroxy-16,17-dihydro-11,15-dioxa-cyclopenta[a]phenanthren-12-one], the melting point lay within 203 to 205 °C. Further, the IC50 in series [1] came to 3.8 µg/mL (≈ 14.9 µM). Also, in series [2] (setting [7]), the IC50 was 12.5 µg/mL (≈ 49.2 µM).
Take `Cc1cccc2c1ccc1c3c(c(=O)oc12)C(O)CO3` (stereo not drawn) [Compound 3b, 17-Hydroxy-4-methyl-16,17-dihydro-11,15-dioxa-cyclopenta[a]phenanthren-12-one]: the IC50 is 3.2 µg/mL (≈ 11.9 µM) in series [3]; > 10 µg/mL in series [4]; 8.3 µg/mL (≈ 30.9 µM) in series [2] (setting [7]); > 10 µg/mL in series [5]; > 10 µg/mL with SW620 (colon cancer); 8 µg/mL (≈ 29.8 µM) in series [6].
For `CCc1cccc2c1ccc1c3c(c(=O)oc12)C(O)CO3` (stereo not drawn) [Compound 3c, 4-Ethyl-17-hydroxy-16,17-dihydro-11,15-dioxa-cyclopenta[a]phenanthren-12-one], the melting point fell in the range of 163 to 165 °C. The IC50 in series [3] came to 3 µg/mL (≈ 10.6 µM). Besides, in series [1], the IC50 was 5 µg/mL (≈ 17.7 µM). Further, in series [2] (setting [7]), the IC50 stood at 5 µg/mL (≈ 17.7 µM).
Take `O=c1oc2c(cc(Cl)c3ccccc32)c2c1C(O)CO2` (stereo not drawn) [Compound 3d, 6-Chloro-17-hydroxy-16,17-dihydro-11,15-dioxa-cyclopenta[a]phenanthren-12-one]: the melting point came to 150 °C. Moreover, the IC50 in series [3] stood at 7.8 µg/mL (≈ 27 µM). Moreover, the IC50 in series [4] was > 10 µg/mL. Also, the IC50 in series [2] (setting [7]) was 5.6 µg/mL (≈ 19.4 µM). Further, the IC50 in series [5] was determined as 9.5 µg/mL (≈ 32.9 µM). For the same compound, the IC50 with SW620 (colon cancer) turned out to be 4.2 µg/mL (≈ 14.5 µM). In series [6], the IC50 was found to be 8 µg/mL (≈ 27.7 µM).
`COc1cc2c3c(c(=O)oc2c2ccccc12)C(O)CO3` (stereo not drawn) [Compound 3e, 17-Hydroxy-6-methoxy-16,17-dihydro-11,15-dioxa-cyclopenta[a]phenanthren-12-one] had a melting point of 210 to 212 °C. In addition, the IC50 in series [3] worked out at 6.5 µg/mL (≈ 22.9 µM). In addition, in series [4], the IC50 stood at 5.7 µg/mL (≈ 20.1 µM). In addition, the IC50 in series [2] (setting [7]) is 5.6 µg/mL (≈ 19.7 µM). In addition, the IC50 in series [5] was determined as 6.8 µg/mL (≈ 23.9 µM). The IC50 with SW620 (colon cancer) is > 10 µg/mL. The IC50 in series [6] was determined as 9 µg/mL (≈ 31.7 µM).
As for `O=c1oc2c3ccccc3ccc2c2occc12` [Compound 4a, 11,15-Dioxa-cyclopenta[a]phenanthren-12-one], the melting point was 198 to 200 °C. In addition, the IC50 in series [1] stood at 10.5 µg/mL (≈ 44.4 µM). The IC50 in series [2] (setting [7]) was > 20 µg/mL. Moreover, the inhibition at 20 µg/mL in series [2] (Homo sapiens, MCF7, at 20 μg/mL (Table 4), read-out: Percent inhibition at the test concentration (bracketed value), MCF-7) turned out to be 17%.
For the compound `Cc1cccc2c1ccc1c3occc3c(=O)oc21` [Compound 4b, 4-Methyl-11,15-dioxa-cyclopenta[a]phenanthren-12-one], the melting point fell in the range of 220 to 222 °C. The IC50 in series [3] was found to be 8.3 µg/mL (≈ 33.2 µM). The IC50 in series [4] was > 10 µg/mL. For the same compound, the IC50 in series [2] (setting [7]) stood at 5.5 µg/mL (≈ 22 µM). Further, the IC50 in series [5] is > 10 µg/mL. For the same compound, the IC50 with SW620 (colon cancer) is > 10 µg/mL. In addition, in series [6], the IC50 turned out to be 8.5 µg/mL (≈ 34 µM).
Turning to `CCc1cccc2c1ccc1c3occc3c(=O)oc21` [Compound 4c, 4-Ethyl-11,15-dioxa-cyclopenta[a]phenanthren-12-one], the melting point is 173 to 174 °C. Besides, the IC50 in series [1] was > 10 µg/mL. In series [2] (setting [7]), the IC50 is > 10 µg/mL.
`O=c1oc2c3ccccc3c(Cl)cc2c2occc12` [Compound 4d, 6-Chloro-11,15-dioxa-cyclopenta[a]phenanthren-12-one] displayed a melting point of 150 °C. The IC50 in series [3] is > 10 µg/mL. For the same compound, in series [4], the IC50 was > 10 µg/mL. Also, in series [2] (setting [7]), the IC50 was found to be 7 µg/mL (≈ 25.9 µM). Besides, the IC50 in series [5] was > 10 µg/mL. The IC50 with SW620 (colon cancer) was > 10 µg/mL. Also, the IC50 in series [6] was > 10 µg/mL.
Regarding `C[C@H]1COC2=C1C(=O)C(=O)c1c2ccc2c1CCCC2(C)C` [cryptotanshinone, reference compound], the IC50 is 0.16 µg/mL (≈ 0.54 µM) in series [1] and 0.41 µg/mL (≈ 1.38 µM) in series [2] (setting [7]).
Take `Cc1coc2c1C(=O)C(=O)c1c-2ccc2c(C)cccc12` [tanshinone I, reference compound]: the “ED50, MDA-MB-231 (ER−)” value in series [1] was determined as 0.75 µg/mL (≈ 2.71 µM). The “ED50, MCF-7 (ER+)” value in series [2] (concentration that reduces cell growth by 50%, 3 days in culture, SRB) came to 0.82 µg/mL (≈ 2.97 µM).
Regarding `Cc1coc2c1C(=O)C(=O)c1c-2ccc2c1CCCC2(C)C` [tanshinone IIA, reference compound], the IC50 amounted to 0.7 µg/mL (≈ 2.38 µM) in series [1] and 0.38 µg/mL (≈ 1.29 µM) in series [2] (setting [7]).
